# Reference: paper PMC5145181, “Structural Mapping and Functional Characterization of Zebrafish Class B G-Protein Coupled Receptor (GPCR) with Dual Ligand Selectivity towards GLP-1 and Glucagon” (PLoS ONE, 2016)
# Assays:
# [1] = system: zfGPCR (dual zfGLP-1R/GCGR); experiment: Competitive binding, displacement of 125I-hGLP-1(7–36)amide from recombinant zfGPCR expressed in COS-7 cells; design: species or system zebrafish (Danio rerio); settings: 125I-hGLP-1(7–36)amide tracer, intact COS-7 cells, 16–18 h at 4°C, triplicate wells; NSB with 1 μM peptide; n = 3 hGLP-1, n = 2 zf glucagon, exendin-4, exendin(9–39), n = 1 zfGLP-1. 95% CI: zfGLP-1 1.2–3.6; hGLP-1 0.98–13; zf glucagon 1.4–4.0; exendin-4 0.24–0.92; exendin(9–39) 2.4–14
# Experimental: Competitive binding experiments were performed with the recombinant zfGPCR expressed in COS-7 cells, as described previously. Transient transfections of pcDNA3 vector containing recombinant zfGPCR into COS-7 cells were performed as described below for the stimulation of intracellular cAMP. Cells were grown in 100-mm plates to confluence and 24 hr after transfection they were trypsinized and transferred to 24 well plates (Biocore, Becton Dickinson). 24–48 hr later each peptide (pM to μM) was added in triplicate wells followed by the addition of an aliquot (100,000 cpm/well) of either ^125I-hGLP-1(7–36)amide or ^125I-exendin(9–39) (each radioactive peptide tracer at […] receptor grade, NEN Life Science Products, Boston, MA). Peptides, radioiodinated ^125I-tracer and cells were incubated for 16–18 h at 4°C. After incubation cells were washed twice with ice-cold PBS, lysed with 1N NaOH and radioactivity measured in a γ-counter. A single dose-displacement curve for each peptide was obtained in a single 24-well plate.
# Dose-response curves for zfGLP-1, zfGLP-2 and zebrafish PACAP-38 were obtained from one transfection. […] Lower rounds of transfections were performed in experiments that replicated our published results from the competitive binding experiments with the displacement of ^125I-hGLP-1(7–36)amide binding to zfGPCR [41] and thus represented positive controls for these studies.
# IC50 values represent an average of n experiments as described above and were calculated by the Prism 4 software. Displacement curves from the competitive binding experiments were plotted by Origin 9 software (OriginLab). Error bars are shown for data points in the displacement curves obtained in two or more rounds of transfections.
# (§1) Results from the functional experiments with recombinant zfGPCR transiently expressed in COS-7 cells were analyzed by the Prism 4 software using a four-parameter logistic sigmoidal curve fit model. Data points represent mean +/- SEM.
# They are shown together with the 95% confidence intervals (CIs). […]
# GLP-1R = settings: cited from earlier work
# Source text: Receptors for GLP-1 (GLP-1R) and glucagon (GCGR) belong to the class B GPCRs that mediate the physiological effects of the peptides within the glucagon-secretin peptide family. Their structures are characterized by large amino terminal extracellular domains which are about 140 amino acids long and an intracellular core consisting of a cytoplasmic domain and seven transmembrane helices (7TMs) connected through three extracellular and three intracellular loops.
# [2] = system: zfGPCR (dual zfGLP-1R/GCGR); experiment: Intracellular cAMP in COS-7 cells expressing recombinant zfGPCR; assay type: cell-based, zebrafish (Danio rerio); settings: 20 min at 37°C, pH 7.4, 1 mM 1-methyl-3-isobutylxanthine, enzyme immunoassay; n = 9 zfGLP-1, n = 5 hGLP-1, zf glucagon, h glucagon, n = 3 exendin-4, n = 6 zfGLP-2. 95% CI: zfGLP-1 0.24–0.80; hGLP-1 0.65–1.63; zf glucagon 0.20–2.9; h glucagon 0.18–1.63; exendin-4 0.07–0.46; zfGLP-2 16.8–72.6
# Experimental: The ability of different peptides to stimulate the increase in intracellular cAMP levels following their binding to the recombinant zfGPCR transiently expressed in COS-7 cells was measured using methods that we developed for non-mammalian G-protein coupled receptors. In brief, COS-7 cells were grown to confluence in 100-mm plates at 37°C and transfected with the pcDNA3 vector containing the recombinant zfGPCR using the TransFast transfection reagent (Promega, Madison, WI) at a […] of plasmid DNA (25 ug) to transfection reagent (75 μL). After 24 h cells were trypsynized and transferred to 24-well plates (Biocore, Becton-Dickinson, Franklin Lakes, NJ). Peptides (pM-μM) were added 24–48 h later. Cells were equilibrated prior to the addition of peptides with the assay buffer (DMEM, 0.5% BSA, 20mM HEPES, 1mM 1-methyl-3-isobutylxanthine, 0.1mM phenylmethylsulfonyl fluoride, pH 7.4) for 20 min at 37°C. Each peptide concentration was added in triplicate wells for 20 min at 37°C. cAMP dose-response curves for each tested peptide were obtained in a single 24-well plate. In all experiments, forskolin (100 nM) (Sigma-Aldrich, St.Louis, MO) was added as a positive control, also in triplicate wells, in the same 24-well plate as the tested peptide. After incubation, the media was removed and cells were lysed by the addition of cold ethanol (1 mL per well). Cell debris was pelleted by centrifugation (10,000 g) for 10-min, and supernatants were dried using a vacuum concentrator. Samples were resuspended in an assay buffer provided by the manufacturer and cAMP levels were quantified by the enzyme immunoassay kit (Cayman Chemicals, Ann Arbor, MI) according to the manufacturer’s instructions. The basal concentration of cAMP (in the absence of peptides) was taken as 1.00, and was in the range of 9–16 pmol/well. Results are presented as a fold-increase over basal.
# Results were plotted by the Origin 9 software (OriginLab), and EC50 values were calculated by Prism 4 software as described below.
# as §1
# They are shown together with the 95% confidence intervals (CIs).
# Comparison of EC50 values calculated from the zfGLP-1 cAMP dose-response curve with the EC50 calculated from the cAMP dose-response curves for each of the tested peptides were performed by the F-test from the Prism 4 software which compares the fitted mid-point (EC50) from the data sets of the two dose-response curves under comparison. Conditions of analysis were as follows: (i) in the normalization step y = 0% was set to be 1 (the basal cAMP concentration taken as 1); y = 100% was set to be the largest value in each data set; (ii) constrained curve-fit parameters were set to be equal to 0.00 on the bottom, 100 on top; (iii) EC50 was not constrained; (iv) the selected option in the non-linear regression curve fit was intended on finding out whether the best-fit of a selected parameter (EC50) differs between two sets.
substance,measurement,setting,value
exendin-4: peptide exclusively found in the saliva of a lizard; agonist of GLP-1R; purchased from Bachem,IC50,[1],0.48 nM
same,"stimulation of intracellular cAMP, GLP-1 vs exendin-4",GLP-1R,to a similar degree
same,EC50,[2],0.18 nM
